Values of other authors in US12465047B2, “Preparation method for L-glufosinate-ammonium powder” (ZHEJIANG UNIVERSITY OF TECHNOLOGY, priority 2020, dated 2025).

Settings: stated as the reason for adjusting pH to 2-2.5 in step (4)

Question: With `CP(=O)(O)CC[C@H](N)C(=O)O.N` [L-glufosinate ammonium] as the molecule, how does the isoelectric point read?
Answer: 2.66 pH
